System: lymphocytic leukemia P388
Test: Lymphocytic Leukemia P388 Test
Assay type: in vivo, BDF1 mice
Conditions: for Median Survival: BDF1 mice; for T/C × 100 (%): ratio of survival time treated/control
Description: The animals used were BDF1 mice, all of one sex, weighing a minimum of 18 g and all within a 3 g weight range. There were 5 or 6 mice per test group. The tumor transplant was by intraperitoneal injection of 0.5 ml of dilute ascitic fluid containing 10^6 cells of lymphocytic leukemia P388. The test compounds were administered intraperitoneally on days 1, 5 and 9 (relative to tumor inocu-lation) at various doses. The animals were weighed and survivors recorded on a regular basis for 60 days. The median survival time and the ratio of survival time for treated (T)/control (C) animals were calculated.

[1] = dose 0.75 mg/kg intraperitoneally on days 1, 5 and 9
[2] = dose 1.5 mg/kg intraperitoneally on days 1, 5 and 9
[3] = dose 3 mg/kg intraperitoneally on days 1, 5 and 9

Row | Compound | Median Survival [1] [days] | T/C × 100 (%) [1] [%] | Median Survival [2] [days] | T/C × 100 (%) [2] [%] | Median Survival [3] [days] | T/C × 100 (%) [3] [%]
1 | CC(C)(C)OC(=O)N[C@@H](COCc1ccccc1)C(=O)NCCNc1ccc(NCCNC(=O)[C@H](COCc2ccccc2)NC(=O)OC(C)(C)C)c2c1C(=O)c1c(O)ccc(O)c1C2=O (relative stereo) [Example 41, S-(R*,R*)]-N,N'-[(9,10-Dihydro-5,8-dihydroxy-9,10-dioxo-1,4-anthracenediyl)bis[imino-2,1-ethanediylimino-[2-oxo-1-[(phenylmethoxy)methyl]-2,1-ethanediyl]]]biscarbamic acid, bis(1,1-dimethylethyl)ester] | 12.0 | 120 | 13.5 | 135 | 15.5 | 155
2 | N[C@@H](COCc1ccccc1)C(=O)NCCNc1ccc(NCCNC(=O)[C@@H](N)COCc2ccccc2)c2c1C(=O)c1c(O)ccc(O)c1C2=O.O=C(O)C(F)(F)F.O=C(O)C(F)(F)F (relative stereo) [Example 42, [S-(R*,R*)]-N,N'-[(9,10-Dihydro-5,8-dihydroxy-9,10-dioxo-1,4-anthracenediyl)bis[imino-2,1-ethanediyl)]bis[2-amino-3-(phenylmethoxy)-propanamide]bis(trifluoroacetate)] | 19.5 | 195 | 21.5 | 215 | 19.5 | 195
3 | CC(C)(C)OC(=O)N[C@@H](CCC(=O)OCc1ccccc1)C(=O)NCCNc1ccc(NCCNC(=O)[C@H](CCC(=O)OCc2ccccc2)NC(=O)OC(C)(C)C)c2c1C(=O)c1c(O)ccc(O)c1C2=O (relative stereo) [Example 43, [S-(R*,R*)]-5,5'-(9,10-Dihydro-5,8-dihydroxy-9,10-dioxo-1,4-anthracenediyl)bis(imino-2,1-ethanediylimino)]bis[4-[[(1,1-dimethylethoxy)carbonvl]amino]-5-oxopentanoic acid]bis(phenylmethyl)ester] | 16.5 | 150 | 17.0 | 155 | 18.0 | 164
4 | N[C@@H](CCC(=O)OCc1ccccc1)C(=O)NCCNc1ccc(NCCNC(=O)[C@@H](N)CCC(=O)OCc2ccccc2)c2c1C(=O)c1c(O)ccc(O)c1C2=O.O=C(O)C(F)(F)F.O=C(O)C(F)(F)F (relative stereo) [Example 44, [S-(R*,R*)]-5,5'-[(9,10-Dihydro-5,8-dihydroxy-9,10-dioxo-1,4-anthracenediyl)bis(imino-2,1-ethanediylimino)]bis[4-amino-5-oxopentanoic acid]bis(phenylmethyl)ester, bis(trifluoroacetate)] | 18.0 | 164 | 19.5 | 177 | 24.0 | 218
5 | CC(C)(C)OC(=O)N[C@@H](CC(=O)OCc1ccccc1)C(=O)NCCNc1ccc(NCCNC(=O)[C@H](CC(=O)OCc2ccccc2)NC(=O)OC(C)(C)C)c2c1C(=O)c1c(O)ccc(O)c1C2=O (relative stereo) [Example 45, [S-(R*,R*)]-4,4'-[(9,10-Dihydro-5,8-dihydroxy-9,10-dioxo-1,4-anthracenediyl)bis(imino-2,1-ethanediylimino)]bis[3-[[(1,1-dimethylethoxy)carbonyl]amino]-4-oxobutanoic acid]bis(phenylmethyl)ester] | 14.0 | 127 | 15.5 | 141 | 18.0 | 164

— patent US4732970A, “Antitumor amino acid and peptide derivatives of 1,4-bis(aminoalkyl and hydroxy-aminoalkyl)amino)-5,8-dihydroxyanthraquinones” (priority 1986, dated 1988)
